Results as given in patent publication US20210030025A1, “BLOOD-FREE DIET FOR REARING MALARIA MOSQUITO VECTORS” (UNIVERSIDADE NOVA DE LISBOA-INSTITUTO DE HIGIENE E MEDICINA …, priority 2018, published 2021).

Tested on: vitellogenin (Vg) transcription in the female mosquito fatbody
Assay: Vg expression 24 h post-feeding on diets (q-RT-PCR)
Assay type: in vivo, Anopheles coluzzii
Settings: ΔΔCT method
Procedure: FIG. 2a. Effects of the fresh-blood-free diets on oogenesis: Expression of vitellogenin precursor. Relative expression was determined using the ΔΔCT method as fold change to mosquitoes fed on the ILD, where RLD-NoP and ILD-NoP represent liquid diet compositions not supplemented with peptides, blood represent conventional blood diets and the remaining RLDs and ILDs represent respectively Rich Liquid Diet and Initial Liquid Diet supplemented with the correspondent indicated peptide P1 to P6.
Oogenesis was assessed by changes in Vg expression 24 h post-feeding (FIG. 2a). Vg expression levels in the fatbodies was quantified using the ΔΔCT method a) after a blood meal, b) after microinjection with the different peptides, and c) after being fed on the various artificial diets as described in section 4. […]
Quantitative Real-time Polymerase Chain Reaction (q-RT-PCR) analysis was used to quantify the expression of Vitellogenin-1 precursor (Vg), a protein biomarker of mosquito oogenesis initiation. Vg expression levels in the fatbodies were quantified using the ΔΔCT method a) after a blood meal, b) after microinjection with the different peptides, and c) after being fed on the various artificial diets. […]
Oogenesis was assessed by changes in Vg expression 24 h post-feeding mosquitoes with the artificial diets of Examples 1 and 2 and conventional vertebrate blood diet (FIG. 2a). […]

Glucagon-like peptide 2 (HADGSFSDEMNTILDNLAARDFINWLIQTKITD; Glucagon-like peptide 2; UniProt P01275 146-178, looked up) [Diet P2, glucagon-like peptide 2 (1-33) (human), from Bachem]
Vg transcript levels after feeding: significantly increased VTG expression
